Experimental data: patent US10738101B2, “Method for selecting odor-controlling substance” (Kao Corporation, priority 2015, dated 2020)

Assays:
[1] = target: T1, OR5AN1 (Homo sapiens, UniProt Q8NGI8); assay: Luciferase reporter gene assay, OR5AN1-expressing HEK293 cells; format: cell-based; conditions: 0.3 μM to 100 μM, vs Mock cells, FIG. 3
T1 construct: expressed in transfected cells; host or cells: HEK293
T1 sequence (Q8NGI8 1-311): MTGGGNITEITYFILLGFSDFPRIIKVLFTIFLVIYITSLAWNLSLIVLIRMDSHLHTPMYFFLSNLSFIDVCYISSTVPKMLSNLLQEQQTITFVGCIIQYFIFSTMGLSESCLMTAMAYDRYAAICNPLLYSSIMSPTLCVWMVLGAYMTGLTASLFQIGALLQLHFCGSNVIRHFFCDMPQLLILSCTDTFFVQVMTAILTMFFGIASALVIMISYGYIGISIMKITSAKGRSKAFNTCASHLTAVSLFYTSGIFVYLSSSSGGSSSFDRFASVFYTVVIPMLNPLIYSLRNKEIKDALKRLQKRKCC
Excerpt: (§1) On the basis of sequence information registered in GenBank, genes respectively encoding 370 human olfactory receptors shown in Tables 1-1 and 1-2 and genes respectively encoding the human olfactory receptors OR5AN1, OR10G4 and OR9Q2 (respectively set forth in SEQ ID NOS: 1, 3 and 5) were cloned. Each of the genes was cloned by the PCR using human genomic DNA person (G1521: Promega) as a template. Each gene amplified by the PCR was incorporated into a pENTR vector (Invitrogen) in accordance with the instruction, and was recombined to NotI and AscI sites produced downstream from a Flag-Rho tag sequence on a pME18S vector by using NotI and AscI sites present on the pENTR vector.
(§2) In 1) of Example 1, HEK293 cells on which the 370 human olfactory receptors were respectively expressed were produced. A reaction solution having a composition shown in Table 2 was prepared and allowed to stand still in a clean bench for 15 minutes, and the resultant was added by 4.4 μL per well in a 384-well plate (BioCoat). Subsequently, the HEK293 cells (20×10^4 cells/cm^2) were seeded by 40 μL per well, and the resultant was cultured for 24 hours in an incubator kept at 37° C. and 5% CO2.
(§3) In 2) of Example 1 and Examples 2 and 3, HEK293 cells in which the human olfactory receptor OR5AN1, OR10G4, OR9Q2 or OR1A1 was expressed were produced. A reaction solution having a composition shown in Table 3 was prepared and allowed to stand still in a clean bench for 15 minutes, and the resultant was added by 10 μL per well in a 96-well plate (BioCoat). Subsequently, the HEK293 cells (3×10^5 cells/cm^2) were seeded by 90 μL per well, and the resultant was cultured for 24 hours in an incubator kept at 37° C. and 5% CO2. Cells obtained under conditions for not expressing the olfactory receptor (Mock) were also prepared to be used as a control, and were used similarly in an experiment.
(§4) The olfactory receptor expressed on the HEK293 cells increases the intracellular cAMP amount by activating adenylate cyclase in conjugation with intracellular Gαs. In the measurement of odor response in this study, luciferase reporter gene assay for monitoring the increase of the intracellular cAMP amount as a luminescence value derived from a firefly luciferase gene (fluc2P-CRE-hygro) was employed. Besides, a fused Renilla luciferase (hRluc-CMV) gene was simultaneously transferred downstream of the CMV promoter, so as to be used as an internal standard for correcting the gene transfer efficiency or an error in the number of cells. For measuring the activity of the luciferase, Dual-Glo(™) Luciferase Assay System (Promega) was used, and the measurement was performed in accordance with the operation instruction of the product. Under each of various stimulation conditions, a value fLuc/hRluc obtained by dividing a firefly luciferase-derived luminescence value by a Renilla luciferase-derived luminescence value was calculated. A value obtained by dividing a value fLuc/hRluc induced by stimulation with an odorous substance by a value fLuc/hRluc of a cell not stimulated with the odorous substance was obtained as fold increase, which was used as an index of the response intensity. A dose-response curve was analyzed using Graph Pad Prism.
(§5) The medium was removed from each of the cultures of the olfactory receptor expressing cells produced according to Reference Example 1, and an odorous substance (muscone, guaiacol or p-cresol) was added thereto. A DMEM medium (Nacalai) containing muscone or guaiacol was added to a 384-well plate containing the culture by 30 μL per well (to a final concentration of muscone of 100 μM and of guaiacol of 1 mM). Alternatively, a CD293 medium (Invitrogen) containing p-cresol was added to a 96-well plate containing the culture by 75 μL per well (to a final concentration of 1 mM). […]

[2] = tested on: muscone odor; assay: Sensory test of cross-adaptation, target odor muscone; format: in vivo, human; conditions: panelists, test sample smelled before target sample, FIG. 6A
Method: (§6) The cross-adaptation effect induced by the odorous substance evaluated in Example 2 was estimated by a sensory test. A glass bottle (No. 11, manufactured by Hakuyo Glass Co., Ltd., capacity: 110 mL) was charged with a target odorous substance to be used as a target sample. As the target odorous substance, muscone, guaiacol or p-cresol was used. As the muscone, a cotton ball soaked with 1 mg of muscone was used. As the guaiacol and p-cresol, 1 mL of a mineral oil (Sigma-Aldrich) solution in a concentration of 10 ppm was used. In a similar manner, a glass bottle was charged with a test substance to be used as a test sample. As the test sample, 5 mg of an ethyl vanillin powder, or 1 mL of a mineral oil (Sigma-Aldrich) solution of p-cresyl acetate, p-cresyl isobutyrate or p-methyl quinoline prepared to a concentration of 1,000 ppm was used.
(§7) The sensory test was performed by a single blind method by five to eight panelists. The target sample was first presented to each panelist, who was caused to replay on the odor intensity. Next, the test sample was presented for 2 minutes or until the odor could not be perceived. Thereafter, the target sample was presented again, and the panelist was caused to replay on the odor intensity. This series of operations was defined as one set, and the sensory test was carried out with four sets per day per panelist set as the upper limit. A recess of at least 10 minutes or more was provided between the sets.
The panelist was caused to plot the estimated intensity of the target odor on a straight line of 9.5 cm with both ends respectively provided with criteria “No odor” and “Strong odor”. A distance (A) between the position of the target odor intensity plotted in the initial estimate and the end of “No odor”, and a distance (B) between the position of the target odor intensity plotted in the second estimate and the end of “No odor” were obtained, so as to calculate percentage odor intensity of the initial estimate [B/A*100−100]. […]

[3] = target: T2, OR1A1 (Homo sapiens, UniProt Q9P1Q5); assay: Luciferase reporter gene assay, OR1A1-expressing HEK293 cells; format: cell-based; conditions: 0.3 μM to 100 μM, vs Mock cells, FIG. 4
T2 construct: expressed in transfected cells; host or cells: HEK293
T2 sequence (Q9P1Q5 1-309): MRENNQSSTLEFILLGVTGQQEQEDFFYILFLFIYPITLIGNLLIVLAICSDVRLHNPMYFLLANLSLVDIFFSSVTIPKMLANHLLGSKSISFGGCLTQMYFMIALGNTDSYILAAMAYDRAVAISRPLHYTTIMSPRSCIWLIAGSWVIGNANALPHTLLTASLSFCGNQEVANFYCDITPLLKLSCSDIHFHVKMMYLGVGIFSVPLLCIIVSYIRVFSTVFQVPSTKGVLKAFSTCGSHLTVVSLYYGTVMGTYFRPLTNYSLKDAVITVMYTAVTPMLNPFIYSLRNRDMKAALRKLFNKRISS
Excerpt: as §1, §2
In 2) of Example 1 and Examples 2 and 3, HEK293 cells in which the human olfactory receptor OR5AN1, OR10G4, OR9Q2 or OR1A1 was expressed were produced. […]
The olfactory receptor expressed on the HEK293 cells increases the intracellular cAMP amount by activating adenylate cyclase in conjugation with intracellular Gαs. In the measurement of odor response in this study, luciferase reporter gene assay for monitoring the increase of the intracellular cAMP amount as a luminescence value derived from a firefly luciferase gene (fluc2P-CRE-hygro) was employed. […] Under each of various stimulation conditions, a value fLuc/hRluc obtained by dividing a firefly luciferase-derived luminescence value by a Renilla luciferase-derived luminescence value was calculated. […] A dose-response curve was analyzed using Graph Pad Prism. […]

[4] = target: T3, OR10G4 (Homo sapiens, UniProt Q8NGN3); assay: Luciferase reporter gene assay, OR10G4-expressing HEK293 cells; format: cell-based; conditions: for responsiveness of OR10G4 (fold increase): FIG. 5A, 5C
T3 construct: expressed in transfected cells; host or cells: HEK293
T3 sequence (Q8NGN3 1-311): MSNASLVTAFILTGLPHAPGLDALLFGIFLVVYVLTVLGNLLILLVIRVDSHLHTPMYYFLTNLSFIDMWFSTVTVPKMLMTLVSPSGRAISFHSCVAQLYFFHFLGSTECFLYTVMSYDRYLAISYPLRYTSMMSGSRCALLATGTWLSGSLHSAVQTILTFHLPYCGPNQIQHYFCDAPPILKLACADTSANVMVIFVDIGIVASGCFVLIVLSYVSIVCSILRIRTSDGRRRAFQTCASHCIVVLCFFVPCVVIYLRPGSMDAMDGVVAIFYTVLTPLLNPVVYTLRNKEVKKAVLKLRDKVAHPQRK
Excerpt: as §1, §2, §3
as §4, with “For measuring the activity of the luciferase, Dual-Glo(™) Luciferase Assay System (Promega) was used, and the measurement was performed in accordance with the operation instruction of the product.” left out, “A value obtained by dividing a value fLuc/hRluc induced by stimulation with an odorous substance by a value fLuc/hRluc of a cell not stimulated with the odorous substance was obtained as fold increase, which was used as an index of the response intensity.” left out, “Prism. […]” for “Prism.”

[5] = tested on: odor of guaiacol; assay: Sensory test of cross-adaptation, target odor guaiacol; format: in vivo, human; conditions: panelists, test sample smelled before target sample, FIG. 6B
Method: as §6
The sensory test was performed by a single blind method by five to eight panelists. The target sample was first presented to each panelist, who was caused to replay on the odor intensity. Next, the test sample was presented for 2 minutes or until the odor could not be perceived. Thereafter, the target sample was presented again, and the panelist was caused to replay on the odor intensity. This series of operations was defined as one set, and the sensory test was carried out with four sets per day per panelist set as the upper limit. […]

[6] = target: T4, OR9Q2 (Homo sapiens, UniProt Q8NGE9); assay: Luciferase reporter gene assay, OR9Q2-expressing HEK293 cells; format: cell-based; conditions: for responsiveness of OR9Q2 (fold increase): FIG. 2, 5B, 5C
T4 construct: expressed in transfected cells; host or cells: HEK293
T4 sequence (Q8NGE9 1-314): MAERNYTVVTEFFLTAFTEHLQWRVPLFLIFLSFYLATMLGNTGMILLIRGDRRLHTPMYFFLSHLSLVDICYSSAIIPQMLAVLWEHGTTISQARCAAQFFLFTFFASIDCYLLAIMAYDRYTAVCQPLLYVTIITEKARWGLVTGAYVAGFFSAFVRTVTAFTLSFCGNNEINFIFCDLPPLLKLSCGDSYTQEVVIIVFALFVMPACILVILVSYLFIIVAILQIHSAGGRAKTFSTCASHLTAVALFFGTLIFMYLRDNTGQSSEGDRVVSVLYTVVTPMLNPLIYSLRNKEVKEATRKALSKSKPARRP
Excerpt: as §1, §2, §3, §4, §5

[7] = tested on: odor of p-cresol; assay: Sensory test of cross-adaptation, target odor p-cresol; format: in vivo, human; conditions: panelists, test sample smelled before target sample, FIG. 6C
Method: as §6, §7
The panelist was caused to plot the estimated intensity of the target odor on a straight line of 9.5 cm with both ends respectively provided with criteria “No odor” and “Strong odor”. A distance (A) between the position of the target odor intensity plotted in the initial estimate and the end of “No odor”, and a distance (B) between the position of the target odor intensity plotted in the second estimate and the end of “No odor” were obtained, so as to calculate percentage odor intensity of the initial estimate [B/A*100−100]. As this value is smaller, the intensity of the target odor perceived in the second estimate is suppressed stronger as compared with that in the initial estimate, namely, stronger cross-adaptation is induced. If this value is −100%, it means that the target odor was not perceived at all in the second estimate.

SMILES: O=C1CCCCC=CCCCCCCCCCO1 [Ambrettolide, 17-oxacycloheptadec-6-en-1-one]
- activation of OR5AN1 response (fold increase) [1]: did not induce the response
- cross-adaptation of muscone odor induced by test substance [2]: did not induce the cross-adaptation

SMILES: CC/C=C\CCO [Cis-3-hexenol]
- activation of OR5AN1 response (fold increase) [1]: did not induce the response
- activation of OR1A1 response (fold increase) [3]: activated
- cross-adaptation of muscone odor induced by test substance [2]: did not induce the cross-adaptation

SMILES: O=C1CCCCCCCCCCCCCCO1 [Exaltolide (R), 16-oxacyclohexadecan-1-one]
- activation of OR5AN1 response (fold increase) [1]: activating the response

SMILES: O=C1CCCCCCC=CCCCCCCC1 [Globanone, cyclohexadec-8-en-1-one]
- activation of OR5AN1 response (fold increase) [1]: activating the response

SMILES: CC(C)(O)CCCC1=CCC(C=O)CC1 [Lyral (R), 4-(4-hydroxy-4-methyl-pentyl)-cyclohex-3-enecarbaldehyde]
- activation of OR5AN1 response (fold increase) [1]: did not induce the response

SMILES: CC1CC=CCCCCCCCCCC(=O)C1 (centres unmarked) [Muscenone delta, 3-methyl-5-cyclopentadecen-1-one]
- activation of OR5AN1 response (fold increase) [1]: activating the response

SMILES: Cc1c([N+](=O)[O-])c(C)c([N+](=O)[O-])c(C(C)(C)C)c1[N+](=O)[O-] [Musk xylol, 1-tert-butyl-3,5-dimethyl-2,4,6-trinitrobenzene]
- activation of OR5AN1 response (fold increase) [1]: activating the response

SMILES: CCOc1cc(C=O)ccc1O [ethyl vanillin, 3-ethoxy-4-hydroxybenzaldehyde]
- responsiveness of OR10G4 (fold increase) [4]: had responsiveness
- cross-adaptation of guaiacol odor induced by test substance [5]: induced

SMILES: COc1ccccc1O [guaiacol, 2-methoxyphenol]
- responsiveness of OR10G4 (fold increase) [4]: had responsiveness
- responsiveness of OR10G4 among 370 olfactory receptors (response intensity, fold increase) ([4]; screen of 370 human olfactory receptors, guaiacol 1 mM, FIG. 1): highest responsiveness

SMILES: Cc1ccc(O)cc1 [p-cresol, p-Cresol]
- responsiveness of OR9Q2 (fold increase) [6]: have responsiveness
- concentration dependency of OR9Q2 response ([6]; different concentrations, FIG. 2): showed response to p-cresol dependently on the concentration
- responsiveness of OR9Q2 among 370 olfactory receptors (response intensity, fold increase) ([6]; screen of 370 human olfactory receptors, p-cresol 1 mM, FIG. 1): highest responsiveness

SMILES: CC(=O)Oc1ccc(C)cc1 [p-cresyl acetate, (4-methylphenyl)acetate]
- responsiveness of OR9Q2 (fold increase) [6]: have responsiveness
- cross-adaptation of p-cresol odor induced by test substance [7]: induced

SMILES: Cc1ccc(OC(=O)C(C)C)cc1 [p-cresyl isobutyrate, (4-methylphenyl)2-methylpropanoate]
- responsiveness of OR9Q2 (fold increase) [6]: have responsiveness
- cross-adaptation of p-cresol odor induced by test substance [7]: induced

SMILES: Cc1ccc2ncccc2c1 [p-methyl quinoline, 6-methyl quinoline]
- responsiveness of OR9Q2 (fold increase) [6]: have responsiveness
- cross-adaptation of p-cresol odor induced by test substance [7]: induced

SMILES: OCCc1ccccc1 [phenyl ethyl alcohol (PEA), 2-phenylethanol]
- activation of OR5AN1 response (fold increase) [1]: did not induce the response
- activation of OR1A1 response (fold increase) [3]: activated
- cross-adaptation of muscone odor induced by test substance [2]: did not induce the cross-adaptation
